The half-life is the time in which the quantity being followed falls by half. Low values mean fast loss, high ones slow loss. The bioavailability is the share of a dose that reaches the circulation, judged against a reference dose that is usually intravenous. Lower therefore signals poor availability.

We go through one compound from ChEMBL document CHEMBL4819104, “Discovery of 2-amino-3-amido-5-aryl-pyridines as highly potent, orally bioavailable, and efficacious PERK kinase inhibitors” (Bioorg Med Chem Lett, 2021).

Molecules are shown by their SMILES.

The target of data set [1] is Platelet-derived growth factor receptor beta (Homo sapiens) (UniProt P09619). Kind of data set: Inhibition of wild-type human partial length PDGFRbeta (V582 to Y1009 residues) expressed in bacterial expression system assessed as residual activity at 10 uM by Kinomescan method relative to control.
Data set [2] has as its target T1, Receptor-interacting serine/threonine-protein kinase 1 (Homo sapiens) (UniProt Q13546).
T1 sequence (whole entry): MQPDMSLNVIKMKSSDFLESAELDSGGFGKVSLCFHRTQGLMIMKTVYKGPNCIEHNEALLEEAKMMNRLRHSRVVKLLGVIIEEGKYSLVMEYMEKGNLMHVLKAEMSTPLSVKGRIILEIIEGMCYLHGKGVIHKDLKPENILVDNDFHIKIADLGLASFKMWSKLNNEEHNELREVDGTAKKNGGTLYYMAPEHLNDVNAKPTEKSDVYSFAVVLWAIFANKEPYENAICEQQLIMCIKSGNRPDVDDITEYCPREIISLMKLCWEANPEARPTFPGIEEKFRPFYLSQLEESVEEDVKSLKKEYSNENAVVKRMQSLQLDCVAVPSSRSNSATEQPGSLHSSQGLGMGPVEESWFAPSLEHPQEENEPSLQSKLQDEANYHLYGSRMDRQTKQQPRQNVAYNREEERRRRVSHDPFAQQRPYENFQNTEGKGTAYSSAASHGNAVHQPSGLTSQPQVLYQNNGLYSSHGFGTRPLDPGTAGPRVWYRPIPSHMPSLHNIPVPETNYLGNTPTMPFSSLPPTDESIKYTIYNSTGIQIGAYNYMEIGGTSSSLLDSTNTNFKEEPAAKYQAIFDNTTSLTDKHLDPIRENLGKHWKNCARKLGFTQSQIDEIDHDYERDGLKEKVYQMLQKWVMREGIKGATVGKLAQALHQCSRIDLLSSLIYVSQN
Kind of data set: Inhibition of wild-type human partial length RIPK1 (M1 to K305 residues) expressed in bacterial expression system assessed as residual activity at 10 uM by Kinomescan method relative to control.

Data set [3] addresses BDNF/NT-3 growth factors receptor (Homo sapiens) (UniProt Q16620). Kind of data set: Inhibition of wild-type human partial length TRKB (Q547 to G838 residues) expressed in mammalian expression system assessed as residual activity at 10 uM by Kinomescan method relative to control.
Data set [4] in a line: Plasma protein binding in rat. It is filed as ADME, cell-free. Conditions: read-out: PPB (converted).
Data set [5] is described as follows: Half life in mouse at 10 mg/kg, po. It is filed as ADME, organism-based. Conditions: in vivo.
Data set [6] relates to Tyrosine-protein kinase ABL1 (Homo sapiens), P00519 [F317L]. Kind of data set: Inhibition of human non-phosphorylated ABL1 F317L mutant (S229 to K512 residues) expressed in mammalian expression system assessed as residual activity at 10 uM by Kinomescan method relative to control.
Data set [7] in a line: Plasma protein binding in human. As to conditions: read-out: PPB (converted). It is filed as ADME, cell-free.
In data set [8] the target is T2, Mitogen-activated protein kinase 12 (Homo sapiens) (UniProt P53778).
T2 sequence (whole entry): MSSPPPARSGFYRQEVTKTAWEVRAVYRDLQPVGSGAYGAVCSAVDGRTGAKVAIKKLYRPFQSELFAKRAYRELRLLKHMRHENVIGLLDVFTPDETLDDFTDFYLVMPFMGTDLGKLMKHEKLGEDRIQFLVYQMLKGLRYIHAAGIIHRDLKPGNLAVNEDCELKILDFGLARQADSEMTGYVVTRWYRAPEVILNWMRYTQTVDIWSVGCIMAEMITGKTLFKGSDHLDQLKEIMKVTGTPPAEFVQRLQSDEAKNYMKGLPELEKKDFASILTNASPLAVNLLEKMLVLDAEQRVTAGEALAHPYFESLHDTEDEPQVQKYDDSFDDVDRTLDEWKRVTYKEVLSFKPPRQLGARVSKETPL
Kind of data set: Inhibition of wild-type human full length p38-gamma (M1 to L367 residues) expressed in mammalian expression system assessed as residual activity at 10 uM by Kinomescan method relative to control.

Data set [9] has as its target Angiopoietin-1 receptor (Homo sapiens) (UniProt Q02763). Kind of data set: Inhibition of wild-type human partial length TIE2 (N804 to T1112 residues) expressed in bacterial expression system assessed as residual activity at 10 uM by Kinomescan method relative to control.
Data set [10] can be described thus: Half life in mouse hepatocytes. It is filed as ADME, cell-based, Hepatocyte.
Data set [11] can be described thus: Oral bioavailability in mouse at 10 mg/kg. It is filed as ADME, organism-based. As to conditions: in vivo.
Data set [12] addresses Proto-oncogene tyrosine-protein kinase Src (Homo sapiens) (UniProt P12931). Kind of data set: Inhibition of wild-type human partial length SRC (L240 to L536 residues) expressed in bacterial expression system assessed as residual activity at 10 uM by Kinomescan method relative to control.
Data set [13] has as its target Macrophage colony-stimulating factor 1 receptor (Homo sapiens) (UniProt P07333). Kind of data set: Inhibition of wild-type human partial length CSF1R (I564 to S939 residues) expressed in bacterial expression system assessed as residual activity at 10 uM by Kinomescan method relative to control.

Macrophage colony-stimulating factor 1 receptor (Homo sapiens), sequence (P07333 whole entry, the tested form may be a part): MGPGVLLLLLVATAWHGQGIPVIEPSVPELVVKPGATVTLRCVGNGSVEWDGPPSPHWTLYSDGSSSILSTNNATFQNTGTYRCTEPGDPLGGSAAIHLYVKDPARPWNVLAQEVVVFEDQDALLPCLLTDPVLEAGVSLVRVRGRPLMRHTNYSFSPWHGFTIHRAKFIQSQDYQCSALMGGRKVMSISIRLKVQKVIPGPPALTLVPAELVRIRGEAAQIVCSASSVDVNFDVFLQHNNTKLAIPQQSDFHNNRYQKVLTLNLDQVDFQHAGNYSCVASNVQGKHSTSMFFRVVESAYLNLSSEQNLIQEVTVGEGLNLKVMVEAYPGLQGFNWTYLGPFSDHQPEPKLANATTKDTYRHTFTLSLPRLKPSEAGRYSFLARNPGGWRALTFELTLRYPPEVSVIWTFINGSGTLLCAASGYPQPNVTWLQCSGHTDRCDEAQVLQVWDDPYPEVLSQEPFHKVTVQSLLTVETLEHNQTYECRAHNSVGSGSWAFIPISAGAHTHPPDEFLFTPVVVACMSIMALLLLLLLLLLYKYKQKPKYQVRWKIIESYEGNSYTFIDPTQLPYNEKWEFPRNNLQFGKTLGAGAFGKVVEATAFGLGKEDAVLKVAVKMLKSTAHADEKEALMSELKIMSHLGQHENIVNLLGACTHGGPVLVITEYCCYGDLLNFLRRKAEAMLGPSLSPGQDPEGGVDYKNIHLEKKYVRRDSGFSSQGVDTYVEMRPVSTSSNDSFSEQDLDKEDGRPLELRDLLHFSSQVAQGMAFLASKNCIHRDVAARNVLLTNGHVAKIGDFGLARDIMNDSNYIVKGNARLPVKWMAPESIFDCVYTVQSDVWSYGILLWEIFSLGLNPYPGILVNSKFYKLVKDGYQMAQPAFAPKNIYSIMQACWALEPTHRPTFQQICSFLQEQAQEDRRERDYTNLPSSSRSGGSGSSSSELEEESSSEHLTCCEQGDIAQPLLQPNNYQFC
Tyrosine-protein kinase ABL1 (Homo sapiens), P00519 [F317L], sequence (P00519 whole entry F317L, the tested form may be a part): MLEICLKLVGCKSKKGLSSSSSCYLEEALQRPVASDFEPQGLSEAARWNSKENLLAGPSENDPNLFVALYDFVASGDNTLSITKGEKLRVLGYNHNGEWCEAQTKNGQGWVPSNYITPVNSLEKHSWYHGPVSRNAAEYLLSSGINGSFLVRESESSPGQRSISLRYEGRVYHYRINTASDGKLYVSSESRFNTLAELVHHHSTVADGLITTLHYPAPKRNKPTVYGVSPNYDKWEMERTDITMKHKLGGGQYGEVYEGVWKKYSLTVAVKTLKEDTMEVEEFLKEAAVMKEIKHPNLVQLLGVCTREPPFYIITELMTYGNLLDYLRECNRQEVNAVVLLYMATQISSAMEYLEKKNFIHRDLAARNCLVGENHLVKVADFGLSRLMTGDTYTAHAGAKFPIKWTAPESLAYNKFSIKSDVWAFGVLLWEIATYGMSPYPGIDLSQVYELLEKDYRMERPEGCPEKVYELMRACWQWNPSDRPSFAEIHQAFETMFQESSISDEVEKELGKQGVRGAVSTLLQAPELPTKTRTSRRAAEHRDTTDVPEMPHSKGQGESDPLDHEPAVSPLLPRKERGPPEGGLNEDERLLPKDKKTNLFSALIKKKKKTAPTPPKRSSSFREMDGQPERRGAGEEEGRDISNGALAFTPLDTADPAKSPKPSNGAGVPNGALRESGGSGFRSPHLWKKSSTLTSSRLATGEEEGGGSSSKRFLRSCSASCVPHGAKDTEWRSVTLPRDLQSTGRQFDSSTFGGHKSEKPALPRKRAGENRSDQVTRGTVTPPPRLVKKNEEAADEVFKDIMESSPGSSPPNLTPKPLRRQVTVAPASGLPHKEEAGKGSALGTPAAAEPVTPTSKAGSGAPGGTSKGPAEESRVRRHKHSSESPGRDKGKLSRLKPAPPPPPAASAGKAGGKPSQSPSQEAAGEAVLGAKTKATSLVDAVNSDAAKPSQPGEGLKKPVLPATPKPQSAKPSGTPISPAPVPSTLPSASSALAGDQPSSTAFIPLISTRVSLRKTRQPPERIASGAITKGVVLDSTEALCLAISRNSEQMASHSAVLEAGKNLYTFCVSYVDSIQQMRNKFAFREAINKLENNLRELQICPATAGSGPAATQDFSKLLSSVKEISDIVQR
BDNF/NT-3 growth factors receptor (Homo sapiens), sequence (Q16620 32-822 limits assumed): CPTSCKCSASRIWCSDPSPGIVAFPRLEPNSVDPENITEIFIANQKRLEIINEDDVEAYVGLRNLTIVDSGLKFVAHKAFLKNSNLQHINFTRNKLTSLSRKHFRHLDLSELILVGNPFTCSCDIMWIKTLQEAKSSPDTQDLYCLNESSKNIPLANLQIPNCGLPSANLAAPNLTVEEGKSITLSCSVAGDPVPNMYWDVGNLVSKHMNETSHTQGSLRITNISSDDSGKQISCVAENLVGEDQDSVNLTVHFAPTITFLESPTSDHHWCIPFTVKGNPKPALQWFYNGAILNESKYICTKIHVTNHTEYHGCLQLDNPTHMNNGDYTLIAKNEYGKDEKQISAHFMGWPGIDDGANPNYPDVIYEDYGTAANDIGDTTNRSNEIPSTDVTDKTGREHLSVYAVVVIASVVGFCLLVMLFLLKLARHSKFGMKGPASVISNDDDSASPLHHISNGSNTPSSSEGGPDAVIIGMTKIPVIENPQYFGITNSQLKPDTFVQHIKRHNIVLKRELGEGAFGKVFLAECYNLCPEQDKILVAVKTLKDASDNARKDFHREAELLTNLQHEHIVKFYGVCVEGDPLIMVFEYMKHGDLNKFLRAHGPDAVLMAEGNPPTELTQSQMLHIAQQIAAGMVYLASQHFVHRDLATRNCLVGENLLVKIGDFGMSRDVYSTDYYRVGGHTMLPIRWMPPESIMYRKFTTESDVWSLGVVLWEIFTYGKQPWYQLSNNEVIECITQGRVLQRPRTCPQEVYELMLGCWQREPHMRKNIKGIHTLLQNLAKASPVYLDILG
Platelet-derived growth factor receptor beta (Homo sapiens), sequence (P09619 whole entry, the tested form may be a part): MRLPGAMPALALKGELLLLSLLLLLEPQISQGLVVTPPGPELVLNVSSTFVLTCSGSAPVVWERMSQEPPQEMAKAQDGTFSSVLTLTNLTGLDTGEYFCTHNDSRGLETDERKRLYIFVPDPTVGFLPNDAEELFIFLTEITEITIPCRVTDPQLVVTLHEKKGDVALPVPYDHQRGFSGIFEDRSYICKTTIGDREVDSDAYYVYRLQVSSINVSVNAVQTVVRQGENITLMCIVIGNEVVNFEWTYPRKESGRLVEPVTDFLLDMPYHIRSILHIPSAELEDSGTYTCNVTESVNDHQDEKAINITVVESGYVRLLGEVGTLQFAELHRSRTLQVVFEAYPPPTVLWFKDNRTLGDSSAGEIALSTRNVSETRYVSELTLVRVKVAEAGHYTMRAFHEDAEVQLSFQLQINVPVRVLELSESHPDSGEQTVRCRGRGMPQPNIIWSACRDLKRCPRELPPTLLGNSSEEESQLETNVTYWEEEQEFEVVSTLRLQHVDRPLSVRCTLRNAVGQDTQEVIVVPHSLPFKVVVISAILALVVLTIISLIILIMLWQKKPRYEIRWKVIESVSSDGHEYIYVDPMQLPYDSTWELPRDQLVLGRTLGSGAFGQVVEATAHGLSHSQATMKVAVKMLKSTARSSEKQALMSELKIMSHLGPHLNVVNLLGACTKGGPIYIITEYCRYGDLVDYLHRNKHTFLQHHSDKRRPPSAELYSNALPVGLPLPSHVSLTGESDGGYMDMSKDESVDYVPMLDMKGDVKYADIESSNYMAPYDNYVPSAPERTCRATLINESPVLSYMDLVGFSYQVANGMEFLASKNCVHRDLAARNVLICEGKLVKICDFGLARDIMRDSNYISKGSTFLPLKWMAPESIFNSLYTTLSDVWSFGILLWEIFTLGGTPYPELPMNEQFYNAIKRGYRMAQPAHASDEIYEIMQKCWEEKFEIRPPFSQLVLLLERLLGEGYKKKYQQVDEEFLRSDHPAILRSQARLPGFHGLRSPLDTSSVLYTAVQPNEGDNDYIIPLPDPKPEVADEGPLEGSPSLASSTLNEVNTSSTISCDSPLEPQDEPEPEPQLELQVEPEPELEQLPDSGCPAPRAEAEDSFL
Angiopoietin-1 receptor (Homo sapiens), sequence (Q02763 whole entry, the tested form may be a part): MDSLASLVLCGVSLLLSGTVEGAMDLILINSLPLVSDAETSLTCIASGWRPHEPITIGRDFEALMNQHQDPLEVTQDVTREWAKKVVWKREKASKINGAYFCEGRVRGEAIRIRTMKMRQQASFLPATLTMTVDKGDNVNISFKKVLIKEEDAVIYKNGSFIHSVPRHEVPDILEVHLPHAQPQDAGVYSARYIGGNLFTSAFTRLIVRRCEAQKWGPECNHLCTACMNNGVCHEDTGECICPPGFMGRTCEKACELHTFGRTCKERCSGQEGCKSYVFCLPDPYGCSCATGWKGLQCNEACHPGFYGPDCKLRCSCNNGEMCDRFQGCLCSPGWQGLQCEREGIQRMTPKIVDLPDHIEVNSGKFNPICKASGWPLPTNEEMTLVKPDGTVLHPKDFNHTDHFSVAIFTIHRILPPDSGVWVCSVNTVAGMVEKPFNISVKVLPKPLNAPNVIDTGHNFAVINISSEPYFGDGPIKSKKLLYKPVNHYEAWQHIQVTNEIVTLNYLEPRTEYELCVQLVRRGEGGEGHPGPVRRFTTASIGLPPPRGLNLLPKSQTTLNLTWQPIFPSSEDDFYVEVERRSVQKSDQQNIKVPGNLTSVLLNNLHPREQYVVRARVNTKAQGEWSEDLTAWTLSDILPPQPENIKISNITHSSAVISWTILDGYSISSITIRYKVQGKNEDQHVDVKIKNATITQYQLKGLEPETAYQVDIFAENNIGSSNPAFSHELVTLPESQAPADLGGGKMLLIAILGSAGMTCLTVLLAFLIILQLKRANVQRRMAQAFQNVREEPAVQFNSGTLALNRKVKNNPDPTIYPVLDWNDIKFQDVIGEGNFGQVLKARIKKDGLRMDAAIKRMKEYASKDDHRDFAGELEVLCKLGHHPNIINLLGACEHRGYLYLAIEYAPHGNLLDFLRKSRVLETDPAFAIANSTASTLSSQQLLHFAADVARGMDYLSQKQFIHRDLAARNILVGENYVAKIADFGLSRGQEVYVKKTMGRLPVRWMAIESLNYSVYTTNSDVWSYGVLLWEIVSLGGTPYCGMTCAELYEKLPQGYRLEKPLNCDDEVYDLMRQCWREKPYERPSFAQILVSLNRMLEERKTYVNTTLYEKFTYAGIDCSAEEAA

Regarding `CCc1cc(NC(=O)[C@H](O)c2cc(F)cc(F)c2)ccc1-c1cnc(N)c(C(=O)NC(C)C)c1`, the Activity in data set [1] came out at 60%; in [2], 100%; in data set [3], 100%; in data set [6] it was 100%; in data set [8], 87%; in [9] it was 85%. Moreover, the results for the Activity in data set [12] and in data set [13] were 97% and 74%, respectively. The fraction unbound was 0.007 in data set [4] and 0.003 in [7]. In addition, the half-life in [5] is 2 h; in [10], 1.05 h. Besides, the bioavailability in data set [11] is 70%.
